# Experimental data as given in ChEMBL document CHEMBL1141723, “Specific targeting of metzincin family members with small-molecule inhibitors: progress toward a multifarious challenge” (Bioorg Med Chem, 2008).
# Activity calls are given as the source filed them. The rule behind the calls is not given here.
# Legend:
# [1] = target: T1, 72 kDa type IV collagenase (Homo sapiens, UniProt P08253)
# Target sequence in this assay (P08253 whole entry): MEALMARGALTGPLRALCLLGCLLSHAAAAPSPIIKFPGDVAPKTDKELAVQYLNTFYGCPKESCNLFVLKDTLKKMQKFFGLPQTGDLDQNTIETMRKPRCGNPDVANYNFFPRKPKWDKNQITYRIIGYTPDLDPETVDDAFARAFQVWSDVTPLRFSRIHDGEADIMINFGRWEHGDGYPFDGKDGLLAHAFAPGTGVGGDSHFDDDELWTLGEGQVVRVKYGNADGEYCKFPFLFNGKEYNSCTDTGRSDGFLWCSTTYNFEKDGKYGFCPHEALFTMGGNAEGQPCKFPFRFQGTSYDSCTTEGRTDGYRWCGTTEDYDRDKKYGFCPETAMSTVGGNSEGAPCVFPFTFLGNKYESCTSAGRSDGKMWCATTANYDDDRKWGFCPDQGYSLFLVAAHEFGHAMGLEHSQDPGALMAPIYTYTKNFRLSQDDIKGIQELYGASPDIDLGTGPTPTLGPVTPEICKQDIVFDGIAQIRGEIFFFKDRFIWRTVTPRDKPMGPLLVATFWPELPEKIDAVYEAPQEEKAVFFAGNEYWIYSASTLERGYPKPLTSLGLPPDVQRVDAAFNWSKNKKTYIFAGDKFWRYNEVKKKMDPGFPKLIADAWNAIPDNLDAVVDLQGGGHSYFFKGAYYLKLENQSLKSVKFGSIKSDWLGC
# [2] = target: T2, Matrix metalloproteinase-14 (Homo sapiens, UniProt P50281); experiment: Inhibition of MMP14
# Stromelysin-1 [3] = target: T3, Stromelysin-1 (Homo sapiens, UniProt P08254)
# Target sequence in this assay (P08254 whole entry): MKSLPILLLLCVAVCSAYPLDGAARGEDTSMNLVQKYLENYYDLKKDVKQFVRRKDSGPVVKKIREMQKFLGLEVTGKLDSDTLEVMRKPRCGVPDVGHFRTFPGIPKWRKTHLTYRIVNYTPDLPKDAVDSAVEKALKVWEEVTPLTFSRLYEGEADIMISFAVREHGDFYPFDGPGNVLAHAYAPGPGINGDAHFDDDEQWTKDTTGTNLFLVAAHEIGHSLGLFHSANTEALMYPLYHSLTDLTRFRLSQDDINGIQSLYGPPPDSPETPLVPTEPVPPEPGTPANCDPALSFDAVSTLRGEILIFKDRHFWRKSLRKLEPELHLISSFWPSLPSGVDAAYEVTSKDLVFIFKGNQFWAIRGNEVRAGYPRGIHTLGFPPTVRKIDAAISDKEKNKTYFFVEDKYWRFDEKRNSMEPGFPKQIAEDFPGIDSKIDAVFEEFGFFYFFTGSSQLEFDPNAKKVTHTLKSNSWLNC
# [4] = target: T4, Matrix metalloproteinase-9 (Homo sapiens, UniProt P14780); experiment: Inhibition of MMP9
# Interstitial collagenase = target: T5, Interstitial collagenase (Homo sapiens, UniProt P03956)
# T5 sequence (P03956 whole entry): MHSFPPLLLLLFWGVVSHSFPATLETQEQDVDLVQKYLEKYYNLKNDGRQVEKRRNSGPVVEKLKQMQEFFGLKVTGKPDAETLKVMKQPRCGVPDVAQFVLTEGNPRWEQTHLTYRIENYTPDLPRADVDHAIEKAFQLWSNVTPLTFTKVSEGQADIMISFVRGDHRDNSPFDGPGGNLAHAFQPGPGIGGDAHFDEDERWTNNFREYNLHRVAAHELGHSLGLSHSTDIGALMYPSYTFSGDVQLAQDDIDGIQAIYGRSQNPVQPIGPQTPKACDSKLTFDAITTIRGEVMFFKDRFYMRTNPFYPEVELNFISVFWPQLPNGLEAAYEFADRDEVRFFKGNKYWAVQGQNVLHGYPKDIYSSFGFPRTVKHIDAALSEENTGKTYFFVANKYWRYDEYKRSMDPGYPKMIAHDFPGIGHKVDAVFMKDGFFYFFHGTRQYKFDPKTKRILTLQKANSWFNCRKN
# [5] = Inhibition of bovine aggrecanase; set-up: species or system Bos taurus
# [6] = target: T6, Macrophage metalloelastase (Homo sapiens, UniProt P39900); experiment: Inhibition of MMP12 up to 100 uM
# Neutrophil collagenase [7] = target: T7, Neutrophil collagenase (Homo sapiens, UniProt P22894); experiment: Inhibition of MMP8 up to 100 uM
# [8] = target: T4, Matrix metalloproteinase-9; experiment: Inhibition of MMP9 up to 100 uM
# [9] = target: T8, Matrilysin (Homo sapiens) (UniProt P09237); experiment: Inhibition of MMP7 up to 100 uM
# T8 sequence (whole entry): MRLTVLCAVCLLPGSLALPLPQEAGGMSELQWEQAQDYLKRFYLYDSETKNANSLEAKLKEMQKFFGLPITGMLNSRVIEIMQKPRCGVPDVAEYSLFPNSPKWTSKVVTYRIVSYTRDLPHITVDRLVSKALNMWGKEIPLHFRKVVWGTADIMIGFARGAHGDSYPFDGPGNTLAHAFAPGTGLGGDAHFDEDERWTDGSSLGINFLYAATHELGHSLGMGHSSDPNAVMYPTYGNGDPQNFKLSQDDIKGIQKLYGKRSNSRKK
# [10] = target: T2, Matrix metalloproteinase-14; experiment: Inhibition of MMP14 up to 100 uM
# Stromelysin-1 [11] = target: T3, Stromelysin-1; experiment: Inhibition of MMP3 up to 100 uM
# Target sequence in this assay (P08254 100-477 limits assumed): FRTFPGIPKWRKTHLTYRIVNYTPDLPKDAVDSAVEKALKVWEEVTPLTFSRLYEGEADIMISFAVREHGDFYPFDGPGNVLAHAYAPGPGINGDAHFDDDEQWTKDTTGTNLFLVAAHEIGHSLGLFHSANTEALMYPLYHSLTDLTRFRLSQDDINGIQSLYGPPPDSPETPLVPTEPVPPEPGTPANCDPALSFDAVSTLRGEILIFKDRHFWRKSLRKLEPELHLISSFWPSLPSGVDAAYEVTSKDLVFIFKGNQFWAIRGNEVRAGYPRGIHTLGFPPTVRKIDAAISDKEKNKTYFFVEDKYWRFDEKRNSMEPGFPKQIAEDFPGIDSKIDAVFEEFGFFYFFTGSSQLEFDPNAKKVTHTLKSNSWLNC
# [12] = target: T9, Matrix metalloproteinase-17 (Homo sapiens) (UniProt Q9ULZ9); experiment: Inhibition of MMP17 up to 100 uM
# T9 sequence (whole entry): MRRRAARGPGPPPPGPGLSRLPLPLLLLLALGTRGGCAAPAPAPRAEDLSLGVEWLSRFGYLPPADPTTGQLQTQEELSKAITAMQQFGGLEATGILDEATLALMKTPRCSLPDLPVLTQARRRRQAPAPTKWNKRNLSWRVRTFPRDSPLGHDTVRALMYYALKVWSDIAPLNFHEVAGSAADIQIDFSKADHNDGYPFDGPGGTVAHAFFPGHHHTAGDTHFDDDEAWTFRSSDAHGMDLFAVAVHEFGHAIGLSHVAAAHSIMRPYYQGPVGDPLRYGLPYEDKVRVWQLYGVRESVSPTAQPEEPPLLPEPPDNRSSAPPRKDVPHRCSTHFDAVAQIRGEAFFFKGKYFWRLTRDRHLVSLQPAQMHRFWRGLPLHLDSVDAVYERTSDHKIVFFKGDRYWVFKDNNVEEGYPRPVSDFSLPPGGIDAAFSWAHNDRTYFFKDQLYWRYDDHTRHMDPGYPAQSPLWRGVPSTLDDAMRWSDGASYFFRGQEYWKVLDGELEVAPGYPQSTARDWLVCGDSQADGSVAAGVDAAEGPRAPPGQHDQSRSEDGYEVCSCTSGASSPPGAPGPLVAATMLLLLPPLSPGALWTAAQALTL
# [13] = target: T1, 72 kDa type IV collagenase; experiment: Inhibition of MMP2 up to 100 uM
# [14] = target: T10, Interstitial collagenase (Homo sapiens) (UniProt P03956); experiment: Inhibition of MMP1 at 100 uM
# T10 sequence (whole entry): T5 sequence (P03956 whole entry)
# Collagenase 3 = Collagenase 3 (Homo sapiens, UniProt P45452); experiment: Inhibition of MMP13
# [15] = target: T6, Macrophage metalloelastase; experiment: Inhibition of MMP12
# Target sequence in this assay (P39900 whole entry): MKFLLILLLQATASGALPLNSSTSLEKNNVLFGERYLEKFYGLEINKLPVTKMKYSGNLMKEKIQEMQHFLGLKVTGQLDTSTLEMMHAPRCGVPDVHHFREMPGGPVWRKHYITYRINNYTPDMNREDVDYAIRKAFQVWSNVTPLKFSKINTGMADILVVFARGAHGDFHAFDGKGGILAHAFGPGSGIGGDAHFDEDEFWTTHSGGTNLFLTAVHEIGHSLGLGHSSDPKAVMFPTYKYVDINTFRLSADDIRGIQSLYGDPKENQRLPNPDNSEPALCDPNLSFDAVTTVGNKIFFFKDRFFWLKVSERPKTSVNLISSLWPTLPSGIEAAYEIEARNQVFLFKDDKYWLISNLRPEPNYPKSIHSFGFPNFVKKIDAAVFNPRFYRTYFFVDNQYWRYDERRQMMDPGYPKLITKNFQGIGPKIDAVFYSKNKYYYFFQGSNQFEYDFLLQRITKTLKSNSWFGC
# Neutrophil collagenase [16] = target: T7, Neutrophil collagenase; experiment: Inhibition of MMP8
# Target sequence in this assay (P22894 whole entry): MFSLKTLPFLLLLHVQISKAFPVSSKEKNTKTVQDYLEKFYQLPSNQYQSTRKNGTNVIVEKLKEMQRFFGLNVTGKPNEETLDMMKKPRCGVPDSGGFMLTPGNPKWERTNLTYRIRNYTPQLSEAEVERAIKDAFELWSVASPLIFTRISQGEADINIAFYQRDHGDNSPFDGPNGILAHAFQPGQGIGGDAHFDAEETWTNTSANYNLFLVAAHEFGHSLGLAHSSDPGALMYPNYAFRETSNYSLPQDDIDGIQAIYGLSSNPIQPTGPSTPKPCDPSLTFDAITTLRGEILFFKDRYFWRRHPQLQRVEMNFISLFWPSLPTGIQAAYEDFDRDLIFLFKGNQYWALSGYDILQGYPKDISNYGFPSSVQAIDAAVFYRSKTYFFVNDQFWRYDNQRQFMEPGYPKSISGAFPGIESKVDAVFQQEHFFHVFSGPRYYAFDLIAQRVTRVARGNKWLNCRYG
# [17] = target: T11, Disintegrin and metalloproteinase domain-containing protein 10 (Homo sapiens, UniProt O14672); experiment: Inhibition of ADAM10
# T11 sequence (O14672 whole entry): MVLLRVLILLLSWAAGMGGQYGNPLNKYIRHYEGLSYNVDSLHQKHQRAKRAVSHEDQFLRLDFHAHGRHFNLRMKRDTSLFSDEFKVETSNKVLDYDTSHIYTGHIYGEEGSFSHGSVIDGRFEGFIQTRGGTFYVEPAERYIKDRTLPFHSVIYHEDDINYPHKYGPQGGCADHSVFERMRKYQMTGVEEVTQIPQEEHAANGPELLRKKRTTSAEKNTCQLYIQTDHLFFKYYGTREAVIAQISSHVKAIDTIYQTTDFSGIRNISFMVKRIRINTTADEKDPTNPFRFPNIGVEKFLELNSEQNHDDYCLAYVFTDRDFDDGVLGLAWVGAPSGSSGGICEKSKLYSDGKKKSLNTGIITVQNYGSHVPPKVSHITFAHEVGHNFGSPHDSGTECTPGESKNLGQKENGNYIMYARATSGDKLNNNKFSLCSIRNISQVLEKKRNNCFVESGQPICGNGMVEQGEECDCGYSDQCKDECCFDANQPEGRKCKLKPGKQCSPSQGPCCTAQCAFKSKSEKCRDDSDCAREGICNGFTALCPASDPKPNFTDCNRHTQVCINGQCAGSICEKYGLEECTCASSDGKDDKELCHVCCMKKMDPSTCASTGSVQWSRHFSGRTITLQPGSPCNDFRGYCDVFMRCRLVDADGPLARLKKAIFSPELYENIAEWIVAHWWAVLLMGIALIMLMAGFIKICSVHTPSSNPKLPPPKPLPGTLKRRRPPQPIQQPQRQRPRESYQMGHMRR
# [18] = target: Disintegrin and metalloproteinase domain-containing protein 17 (Homo sapiens, UniProt P78536); experiment: Inhibition of TACE
# Matrilysin = target: T12, Matrilysin (Homo sapiens, UniProt P09237)
# T12 sequence (P09237 whole entry): T8 sequence (whole entry)
# [19] = target: Disintegrin and metalloproteinase domain-containing protein 17 (Sus scrofa, UniProt O77636); experiment: Inhibition of pig TACE
# [20] = Selectivity for TACE over MMP3
# [21] = Selectivity for TACE over ADAM10
# [22] = Selectivity for TACE over MMP1
# [23] = Selectivity for TACE over MMP7
# [24] = Selectivity for TACE over MMP14
# [25] = Selectivity for TACE over BMP1
# [26] = Selectivity for TACE over MMP2
# [27] = Selectivity for pig TACE over MMP9
# [28] = Selectivity for pig TACE over MMP3
# [29] = Selectivity for pig TACE over MMP2
# [30] = Selectivity for pig TACE over MMP8
# [31] = Selectivity for pig TACE over MMP1
# [32] = Selectivity for pig TACE over MMP7
# Sequence of Disintegrin and metalloproteinase domain-containing protein 17 (Homo sapiens, UniProt P78536) (P78536 whole entry, the tested form may be a part): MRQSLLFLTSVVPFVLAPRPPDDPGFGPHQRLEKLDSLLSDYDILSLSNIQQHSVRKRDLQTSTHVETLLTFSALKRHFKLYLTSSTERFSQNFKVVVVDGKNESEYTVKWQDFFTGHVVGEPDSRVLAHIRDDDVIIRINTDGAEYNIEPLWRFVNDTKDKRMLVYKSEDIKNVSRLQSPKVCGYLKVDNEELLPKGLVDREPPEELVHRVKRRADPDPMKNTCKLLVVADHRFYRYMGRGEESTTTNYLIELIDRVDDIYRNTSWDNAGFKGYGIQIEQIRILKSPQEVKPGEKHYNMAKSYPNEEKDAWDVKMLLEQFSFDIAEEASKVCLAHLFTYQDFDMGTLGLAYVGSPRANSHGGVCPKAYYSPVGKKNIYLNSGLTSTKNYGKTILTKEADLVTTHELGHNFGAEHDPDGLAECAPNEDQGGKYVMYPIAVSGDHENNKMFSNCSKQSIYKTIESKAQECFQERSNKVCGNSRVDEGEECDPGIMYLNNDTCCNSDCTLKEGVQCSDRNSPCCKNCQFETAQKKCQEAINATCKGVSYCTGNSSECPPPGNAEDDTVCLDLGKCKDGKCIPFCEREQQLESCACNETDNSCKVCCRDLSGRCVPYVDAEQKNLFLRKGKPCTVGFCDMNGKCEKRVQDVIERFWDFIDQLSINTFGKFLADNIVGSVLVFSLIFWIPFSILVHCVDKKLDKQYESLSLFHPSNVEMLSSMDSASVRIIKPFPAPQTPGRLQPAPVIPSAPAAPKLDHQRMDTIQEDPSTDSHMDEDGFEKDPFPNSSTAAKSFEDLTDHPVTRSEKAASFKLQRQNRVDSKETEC
# T4 sequence (P14780 whole entry): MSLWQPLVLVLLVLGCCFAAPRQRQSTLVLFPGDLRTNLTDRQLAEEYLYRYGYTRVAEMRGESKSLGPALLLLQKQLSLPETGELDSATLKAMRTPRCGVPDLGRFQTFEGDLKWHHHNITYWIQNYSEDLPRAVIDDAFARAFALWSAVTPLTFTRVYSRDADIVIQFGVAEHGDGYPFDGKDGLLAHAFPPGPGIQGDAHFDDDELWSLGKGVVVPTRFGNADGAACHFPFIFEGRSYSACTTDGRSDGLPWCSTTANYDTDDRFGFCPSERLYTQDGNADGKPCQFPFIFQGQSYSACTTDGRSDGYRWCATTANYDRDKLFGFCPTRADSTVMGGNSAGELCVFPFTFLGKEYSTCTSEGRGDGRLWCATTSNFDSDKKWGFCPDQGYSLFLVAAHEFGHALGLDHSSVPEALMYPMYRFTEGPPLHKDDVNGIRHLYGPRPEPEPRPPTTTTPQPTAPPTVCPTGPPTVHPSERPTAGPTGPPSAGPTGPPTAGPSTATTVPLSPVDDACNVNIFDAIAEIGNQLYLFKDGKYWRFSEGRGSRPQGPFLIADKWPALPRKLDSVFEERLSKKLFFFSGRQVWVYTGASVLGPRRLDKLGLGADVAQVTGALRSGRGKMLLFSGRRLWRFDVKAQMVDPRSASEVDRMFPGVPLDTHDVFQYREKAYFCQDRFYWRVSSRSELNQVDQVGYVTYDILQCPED
# Sequence of Disintegrin and metalloproteinase domain-containing protein 17 (Sus scrofa, UniProt O77636) (O77636 whole entry, the tested form may be a part): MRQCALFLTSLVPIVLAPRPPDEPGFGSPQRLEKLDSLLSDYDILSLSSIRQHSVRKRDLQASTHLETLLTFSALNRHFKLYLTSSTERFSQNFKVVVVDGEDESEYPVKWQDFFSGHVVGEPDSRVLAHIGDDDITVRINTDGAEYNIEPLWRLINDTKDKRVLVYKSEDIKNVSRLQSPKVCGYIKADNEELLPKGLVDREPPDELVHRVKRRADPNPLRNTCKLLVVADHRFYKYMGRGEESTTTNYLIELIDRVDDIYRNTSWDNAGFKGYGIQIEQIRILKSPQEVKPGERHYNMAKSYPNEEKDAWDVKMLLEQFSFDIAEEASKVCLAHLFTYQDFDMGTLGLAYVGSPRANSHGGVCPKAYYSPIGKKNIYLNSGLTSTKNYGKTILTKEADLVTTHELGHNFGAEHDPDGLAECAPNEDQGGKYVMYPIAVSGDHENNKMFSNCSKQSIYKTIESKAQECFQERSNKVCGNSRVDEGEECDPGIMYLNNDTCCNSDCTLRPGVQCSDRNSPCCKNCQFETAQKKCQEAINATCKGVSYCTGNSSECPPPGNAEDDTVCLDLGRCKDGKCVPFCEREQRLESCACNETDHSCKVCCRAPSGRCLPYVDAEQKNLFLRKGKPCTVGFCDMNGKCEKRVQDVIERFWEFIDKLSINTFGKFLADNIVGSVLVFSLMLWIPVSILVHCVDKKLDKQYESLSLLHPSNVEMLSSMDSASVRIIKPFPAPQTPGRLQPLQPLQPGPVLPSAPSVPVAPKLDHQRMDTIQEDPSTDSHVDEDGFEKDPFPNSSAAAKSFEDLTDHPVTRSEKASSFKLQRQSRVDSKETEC
compound,measurement,setting,value
COC[C@@H](NC(=O)[C@@H](NC(=O)[C@H](CCCc1ccc(-c2ccccc2)c(C)c1)CC(=O)NO)C(C)(C)C)c1ccccc1,IC50,[1],750 nM
same,IC50,[2],930 nM
same,IC50,Stromelysin-1 [3],2.1 nM
same,IC50,[4],560 nM
same,IC50,Interstitial collagenase,5900 nM
O=C(NO)[C@@H](NCC1CC1)[C@@H](Cc1cccc(O)c1)C(=O)N[C@H]1c2ccccc2C[C@H]1O,IC50,[5],12 nM
O=C(OCc1ccccc1)c1cn2c(=O)n(Cc3ccccc3)c(=O)cc2s1,Activity,[6],inactive
same,Activity,Neutrophil collagenase [7],inactive
same,Activity,[8],inactive
same,Activity,[9],inactive
same,Activity,[10],inactive
same,Activity,Stromelysin-1 [11],inactive
same,Activity,[12],inactive
same,Activity,[13],inactive
same,Activity,[14],inactive
CC1(CN[C@H](C(=O)NO)[C@@H](Cc2cccc(O)c2)C(=O)N[C@H]2c3ccccc3C[C@H]2O)CC1,IC50,[5],8 nM
same,Ki,[1],> 3000 nM
same,Ki,Stromelysin-1 [3],> 4500 nM
same,Ki,[4],< 1 nM
same,Ki,Collagenase 3,> 5000 nM
same,Ki,Interstitial collagenase,5250 nM
COc1ccc(C2=NNC3(S2)C(=O)N(Cc2ccccc2)c2ccc(C)cc23)cc1 (configuration not stated),IC50,[15],> 22000 nM
same,IC50,Collagenase 3,> 100000 nM
O=C(O)C[C@@H](NC(=O)c1cc(-c2ccc(-c3ccncc3)cc2)cs1)c1ccccc1,IC50,[1],> 100000 nM
same,IC50,Neutrophil collagenase [16],1700 nM
same,IC50,Stromelysin-1 [3],390 nM
same,IC50,[4],980 nM
Cc1cc(=O)c(O)c(C(=O)NCc2ccc(-c3ccc(-c4ccccc4)cc3)cc2)o1,IC50,[1],> 50000 nM
same,IC50,Interstitial collagenase,> 50000 nM
CN1CC2(CC2)C[C@H](C(=O)NO)[C@H]1C(=O)N1CCN(c2ccc(C(F)(F)F)cn2)CC1,IC50,[17],97 nM
same,IC50,[15],564 nM
same,IC50,[18],2040 nM
Cc1cc(COc2ccc(C(=O)Nc3ccccc3C(=O)c3c[nH]c(=O)[nH]3)cc2)c2ccccc2n1,Ki,Matrilysin,> 636 nM
same,IC50,[19],9 nM
CCCN1C(=O)[C@H](CS)NC(=O)[C@@H]1Cc1ccc([N+](=O)[O-])cc1,IC50,Stromelysin-1 [3],> 20000 nM
CC#CCOc1ccc(S(=O)(=O)CC2(C(=O)NO)CCN(c3c(C)noc3C)CC2)cc1,IC50,[1],664 nM
same,IC50,[2],24000 nM
same,IC50,[4],5500 nM
same,IC50,[18],2.2 nM
same,IC50,Collagenase 3,2280 nM
same,IC50,Interstitial collagenase,37300 nM
Cc1cc(COc2ccc(NC(=O)[C@H]3[C@H](C(=O)NO)CCCN3C)cc2)c2ccccc2n1,Ki,[1],> 3330 nM
same,Ki,[4],> 2130 nM
same,IC50,[19],6.2 nM
same,Ki,Interstitial collagenase,> 4950 nM
Cc1cc(COc2ccc(S(=O)(=O)CC(C=C3CCN(CC(C)C)CC3)N(O)C=O)cc2)c2ccccc2n1 (configuration not stated),IC50,Neutrophil collagenase [16],> 100000 nM
same,IC50,[2],> 100000 nM
same,IC50,Interstitial collagenase,> 100000 nM
COC(=O)[C@@]1(Cc2ccc(OCc3cc(C)nc4ccccc34)cc2)C[C@@H]1C(=O)NO,fold change (FC),[20],100
same,fold change (FC),[21],> 7000
same,fold change (FC),[22],> 12500
same,fold change (FC),[23],200
same,fold change (FC),[24],1800
same,fold change (FC),[25],2200
same,fold change (FC),[26],1100
CC#CCOc1ccc(S(=O)(=O)N[C@@H](C(=O)NO)[C@H](C)O)cc1,IC50,Neutrophil collagenase [16],35 nM
same,IC50,[17],1090 nM
same,IC50,[2],582 nM
same,IC50,[4],777 nM
same,IC50,Matrilysin,961 nM
same,IC50,[18],2 nM
same,IC50,Collagenase 3,96 nM
same,IC50,Interstitial collagenase,2470 nM
COc1c(Br)ccc2oc(COc3ccc(-c4ccc(S(=O)(=O)N[C@@H](C(=O)O)C(C)C)cc4)cc3)c(C)c12,IC50,Neutrophil collagenase [16],42 nM
same,IC50,Stromelysin-1 [3],81 nM
same,IC50,[18],> 25000 nM
same,IC50,Interstitial collagenase,> 400000 nM
Cc1cc(COc2ccc(C(=O)N[C@@H]3CCOC[C@@H]3C(=O)NO)cc2)c2ccccc2n1,fold change (FC),[27],> 14000
same,fold change (FC),[28],427
same,fold change (FC),[29],> 30000
same,fold change (FC),[30],5500
same,fold change (FC),[31],> 30000
same,fold change (FC),[32],200
COC(=O)[C@]1(c2cccc(OCc3cc(C)nc4ccccc34)c2)C[C@H]1C(=O)NO,fold change (FC),[20],1300
same,fold change (FC),[21],4
same,fold change (FC),[22],> 8300
same,fold change (FC),[23],> 8300
same,fold change (FC),[24],770
same,fold change (FC),[25],1400
same,fold change (FC),[26],3400
O=S(=O)(CC1CS1)c1ccc(Oc2ccccc2)cc1 (configuration not stated),Ki,[18],3700 nM
Cc1cc(C#N)ccc1N1CCN(S(=O)(=O)CC2(C(=O)NO)CCN(C(=O)O[C@@H]3CCOC3)CC2)CC1,IC50,[1],> 5000 nM
same,IC50,[17],26 nM
same,IC50,Stromelysin-1 [3],> 5000 nM
same,IC50,[4],> 5000 nM
same,IC50,Interstitial collagenase,> 5000 nM
COC[C@@H](NC(=O)[C@@H](NC(=O)[C@H](CCCc1ccc(-c2ccccc2)c(C)c1)CC(=O)O)C(C)(C)C)c1ccccc1,inhibition,[14],20%
